One data set in a line: Solubility test in water (HPLC). Type of data set: physicochemical. To be noted: stirred at constant temperature for 30 min. On the procedure:
The solubility of the salt of the compound of Formula (I) of the present invention was determined by the following method:
a) About 200 mg of the salt of the compound of Formula (I) was accurately weighed, dissolved in 200 ml of an aqueous solution, stirred at a constant temperature for 30 min, and allowed to stand. The supernatant was centrifuged, and then the supernatant of the centrifugate was taken and used as a test solution.
b) About 200 mg of the compound of Formula (I) was accurately weighed, dissolved in aqueous methanol, and quantitatively diluted into a solution containing 0.02 mg of free base per 1 ml.
The solution was used as a reference solution.
The table below compares the solubilities of the compound of Formula (I) and its various forms of salts.
Compound `O=C(c1cc(Cc2n[nH]c(=O)c3ccccc23)ccc1F)N1CCN(c2ccc3[nH]cnc3n2)CC1.O=S(=O)(O)c1ccccc1` [4-(3-(4-(1H-imidazo[4,5-b]pyridine-5-yl)piperazine-1-carbonyl)-4-fluorobenzyl)phthalazine-1(dihydro)-one benzenesulfonate] had a Solubility in water of 0.23 mg/mL.
Same read-out and setting: under `O=C(c1cc(Cc2n[nH]c(=O)c3ccccc23)ccc1F)N1CCN(c2ccc3[nH]cnc3n2)CC1.O=S(=O)(O)CCO` [4-(3-(4-(1H-imidazo[4,5-b]pyridine-5-yl)piperazine-1-carbonyl)-4-fluorobenzyl)phthalazine-1(dihydro)-one hydroxyethanesulfonate] stands 0.31 mg/mL; under `Cc1ccc(S(=O)(=O)O)cc1.O=C(c1cc(Cc2n[nH]c(=O)c3ccccc23)ccc1F)N1CCN(c2ccc3[nH]cnc3n2)CC1` [4-(3-(4-(1H-imidazo[4,5-b]pyridine-5-yl)piperazine-1-carbonyl)-4-fluorobenzyl)phthalazine-1(dihydro)-one p-toluenesulfonate], 0.04 mg/mL.
The same measure, in the same setting: to `Cl.O=C(c1cc(Cc2n[nH]c(=O)c3ccccc23)ccc1F)N1CCN(c2ccc3[nH]cnc3n2)CC1` [4-(3-(4-(1H-imidazo[4,5-b]pyridine-5-yl)piperazine-1-carbonyl)-4-fluorobenzyl)phthalazine-1(dihydro)-one hydrochloride] belongs 0.34 mg/mL; to `CS(=O)(=O)O.O=C(c1cc(Cc2n[nH]c(=O)c3ccccc23)ccc1F)N1CCN(c2ccc3[nH]cnc3n2)CC1` [4-(3-(4-(1H-imidazo[4,5-b]pyridine-5-yl)piperazine-1-carbonyl)-4-fluorobenzyl)phthalazine-1(dihydro)-onemethanesulfonate], 0.3 mg/mL.

Staying with this data set, now noted: thermodynamic from solid, stirred at constant temperature for 30 min.
One may read the solubility as the dissolved amount per volume that the medium holds. Read a high solubility as much dissolved substance. As to `O=C(c1cc(Cc2n[nH]c(=O)c3ccccc23)ccc1F)N1CCN(c2ccc3[nH]cnc3n2)CC1` [Formula I, 4-(3-(4-(1H-imidazo[4,5-b]pyridine-5-yl)piperazine-1-carbonyl)-4-fluorobenzyl)phthalazine-1(dihydro)-one], the solubility at 30 min turned out to be 0.001 mg/mL.

The values above are taken from US10874667B2, “Pharmaceutical salt of antitumor heterocyclic imidazole compound” (SHANGHAI HUILUN LIFE SCIENCE & TECHNOLOGY CO., LTD., priority 2016, dated 2020).
